The values below come from patent publication US20230220021A1, “CYCLIC PEPTIDE INHIBITORS OF PSD-95 AND USES THEREOF” (University of Copenhagen, priority 2020, published 2023).

The target of experiment [1] is T1, PSD-95-PDZ2 (Homo sapiens, UniProt P78352, V178C).
T1 construct: screened with the TAMRA labelled PSD-95-PDZ2-V178C domain; 7xHis (N); made in house
Kind of experiment: SPOT peptide array screening with TAMRA labelled PSD-95-PDZ2. In kind it is binding. The following applies: SPOT array, TAMRA labelled PSD-95-PDZ2-V178C, normalized to WT. Here is the method:
SPOT peptide array synthesis. To generate the cyclic nNOSβ-hairpin arrays, we used the Intavis MultiPep spotter (Intavis Bioanalytical instruments). The membranes employed in this assay were SynthoPlan APEG CE (standard amino-modified acid stable sellulose membrane with a PEG-spacer), 10×15 cm with a loading of 400 nmol cm^−2. Solutions of 0.3 M Fmoc-AA-OH and 0.3 M Oxyma Pure were prepared in N-methyl-2-pyrrolidone (NMP). The activator solution consisted of 0.3 M DIC and 0.3 M of 2,4,6-trimethylpyridine (Collidine) in NMP. The capping solution consisted of a solution of 1 M acetic anhydride and 0.05 M of 4-dimethylaminopyridine (DMAP) in NMP. The deprotection solution consisted of 20% piperidine in NMP. AA couplings were performed 1 h,4 times. Deprotection of the Fmoc groups was performed 15min,2 times. Membrane washing between couplings or deprotections was performed with NMP and ethanol. Elongation of peptides in cellulose membrane was started by coupling first the Fmoc-PEG(9)-OH (Iris Biotech) and the subsequent mixture of Fmoc-Gly-OH (25%) and Boc-Gly-OH (75%) to lower the total loading of the membrane. Afterwards, the resin was capped with the capping solution and extensively washed and soaked in bromophenol blue (BPB) as a quality control to reveal the SPOTS with a functional amino group. Then, we coupled the quasi-orthogonal group Fmoc-Glu-PP, and carried out the rest of the synthesis until peptide completion. The cellulose bound linear peptides were finally treated with a solution of 95% DCM, 3% TIPS and 2% TFA 3 times, 20 min. to remove the quasi-orthogonal group. Afterwards, the membrane was washed 5 times with DCM and neutralized with 5% DIPEA in DCM. The membrane was then washed 5 more times with DCM, 5 times with NMP and cyclized with 0.3M PyAOP and 0.3M of DIPEA in DMF for 3 h or overnight. Finally, the membrane was dried with DCM and the side-chain protecting groups were cleaved with the standard deprotection cocktail (95% TFA, 2.5% H2O and 2.5% TIPS) or with reagent K [TFA 82.5%, phenol 5%, H2O 5%, thioanisole 5% and 1,2-ethanedithiol (EDT) 2.5%] for 3 h.
SPOT membrane screening. Membranes were incubated with PBS pH 7.2+0.5% bovine serum albumin (BSA) for 1 h. After the incubation period, the membrane was dried and scanned with an Amershan Typhoon scanner, at 400V, Cy3 wavelength (532 nm). A TIF file of the screening and a file with the blank values were generated using the Image Quant software. Afterwards, a solution of 50 nM of TAMRA labelled PSD-95-PDZ2 domain was prepared in PBS pH 7.2+0.5% BSA and was added to the membrane. The membrane was left incubating in a Polymax 1040 rocking table for 1 h protected from the light. Passed the incubation time, the excess of labelled protein was removed by washing the membrane 3 times with PBS+0.5% BSA. Finally, the membrane fluorescence values were measured with the Amershan Typhoon scanner at 400V, Cy3 wavelength (532 nm). Using the Image Quant software, the TIF image of the screening and a file with the fluorescence values of the peptides with the TAMRA labelled PSD-95-PDZ2 were generated. The blank was then subtracted from the fluorescence values of the peptides screened against the TAMRA labelled PSD-95-PDZ2.
A deep mutational scan was performed on the WT scaffold, exchanging each AA to the remaining 19 L-AAs. Each array contained three copies of the individual peptides as technical replicates. Additionally, three controls were included in the design: the cyclic nNOS β-hairpin WT control (positive control), a linear nNOS peptide (cyclization control) and a cyclic nNOS β-hairpin with a F111V substitution (negative control previously tested in FP competition assays). For array screening, a mutation in PSD-95-PDZ2 residue V178 (PSD-95-PDZ2-V178C) was introduced, which was subsequently labelled with TAMRA maleimide. […]

In experiment [2] the target is T2, PSD-95-PDZ2 (Homo sapiens, UniProt P78352).
T2 construct: 7xHis (N); made in house; host or cells: Escherichia coli B21 pLys (for the mutants, 'as previously described')
Kind of experiment: Fluorescence polarization (FP) competition assay against cyclic nNOS TAMRA probe. In kind it is binding. The following applies: for Ki: FP competition, cyclic nNOS TAMRA probe, mean of triplicates, N.B. = not binding, read-out: Ki; for Relative Ki (Ki mut/Ki WT): FP inhibition constant normalized to WT value. In general terms: In fluorescence polarisation assays a small probe gives low polarisation when free and higher when bound to something large.

Where a SMILES comes first, the peptide text is derived from it. [ ]: non-standard residue; d: D form.

In the case of `CC(C)C[C@@H]1NC(=O)[C@H](Cc2c[nH]cn2)NC(=O)[C@H]([C@@H](C)O)NC(=O)[C@H](CCC(N)=O)NC(=O)CNC(=O)[C@H]2CCCN2C(=O)[C@H](CCC(N)=O)NC(=O)[C@H]([C@@H](C)O)NC(=O)[C@H](C(C)C)NC(=O)[C@H](CCCNC(=N)N)NC(=O)[C@H](C)NC(=O)[C@H]([C@@H](C)O)NC(=O)[C@H](CCCCN)NC(=O)[C@@H]2CCCN2C(=O)[C@H]([C@@H](C)O)NC(=O)CNC(=O)[C@H](CC(=O)O)NC(=O)CNC(=O)[C@H]([C@@H](C)O)NC(=O)[C@H](Cc2ccccc2)NC(=O)[C@H]([C@@H](C)O)NC(=O)[C@H]([C@@H](C)O)NC(=O)[C@H](CCC(=O)O)NC1=O` [compound 70] (cyclo(THLETTFTGDGTPKTARVTQ[dP]GQ)), the “Normalized SPOT fluorescence (Mut/WT)” value at PSD-95-PDZ2 [1] turned out to be 0.06. Also, on PSD-95-PDZ2 [2], the Ki (in general, the equilibrium dissociation constant of an inhibitor or competing ligand from its target) worked out at 1760 nM and the “Relative Ki (Ki mut/Ki WT)” value was 1.17.

In the case of `CC[C@H](C)[C@@H]1NC(=O)[C@H]([C@@H](C)O)NC(=O)[C@H](CCCCN)NC(=O)[C@@H]2CCCN2C(=O)[C@H]([C@@H](C)O)NC(=O)CNC(=O)[C@H](CC(=O)O)NC(=O)CNC(=O)[C@H]([C@@H](C)O)NC(=O)[C@H](Cc2ccccc2)NC(=O)[C@H]([C@@H](C)O)NC(=O)[C@H]([C@@H](C)O)NC(=O)[C@H](CCC(=O)O)NC(=O)[C@H](CC(C)C)NC(=O)[C@H](Cc2c[nH]cn2)NC(=O)[C@H]([C@@H](C)O)NC(=O)[C@H](CCC(N)=O)NC(=O)CNC(=O)[C@H]2CCCN2C(=O)[C@H](C)NC(=O)[C@H]([C@@H](C)O)NC(=O)[C@H](C(C)C)NC(=O)[C@H](CCCNC(=N)N)NC1=O` [compound 74] (cyclo(THLETTFTGDGTPKTIRVTA[dP]GQ)), the “Normalized SPOT fluorescence (Mut/WT)” value on PSD-95-PDZ2 [1] amounted to 0.42. In addition, on PSD-95-PDZ2 [2], the “Relative Ki (Ki mut/Ki WT)” value came to 1.01.

As for `CC[C@H](C)[C@@H]1NC(=O)[C@H]([C@@H](C)O)NC(=O)[C@H](CCCCN)NC(=O)[C@H](C)NC(=O)[C@H]([C@@H](C)O)NC(=O)CNC(=O)[C@H](CC(=O)O)NC(=O)CNC(=O)[C@H]([C@@H](C)O)NC(=O)[C@H](Cc2ccccc2)NC(=O)[C@H]([C@@H](C)O)NC(=O)[C@H]([C@@H](C)O)NC(=O)[C@H](CCC(=O)O)NC(=O)[C@H](CC(C)C)NC(=O)[C@H](Cc2c[nH]cn2)NC(=O)[C@H]([C@@H](C)O)NC(=O)[C@H](CCC(N)=O)NC(=O)CNC(=O)[C@H]2CCCN2C(=O)[C@H](CCC(N)=O)NC(=O)[C@H]([C@@H](C)O)NC(=O)[C@H](C(C)C)NC(=O)[C@H](CCCNC(=N)N)NC1=O` [compound 67] (cyclo(THLETTFTGDGTAKTIRVTQ[dP]GQ)), at PSD-95-PDZ2 [1], the “Normalized SPOT fluorescence (Mut/WT)” value is 0.93. Besides, the “Relative Ki (Ki mut/Ki WT)” value on PSD-95-PDZ2 [2] amounted to 1.07.

Regarding `CC[C@H](C)[C@@H]1NC(=O)[C@H]([C@@H](C)O)NC(=O)[C@H](CCCCN)NC(=O)[C@@H]2CCCN2C(=O)[C@H]([C@@H](C)O)NC(=O)CNC(=O)[C@H](C)NC(=O)CNC(=O)[C@H]([C@@H](C)O)NC(=O)[C@H](Cc2ccccc2)NC(=O)[C@H]([C@@H](C)O)NC(=O)[C@H]([C@@H](C)O)NC(=O)[C@H](CCC(=O)O)NC(=O)[C@H](CC(C)C)NC(=O)[C@H](Cc2c[nH]cn2)NC(=O)[C@H]([C@@H](C)O)NC(=O)[C@H](CCC(N)=O)NC(=O)CNC(=O)[C@H]2CCCN2C(=O)[C@H](CCC(N)=O)NC(=O)[C@H]([C@@H](C)O)NC(=O)[C@H](C(C)C)NC(=O)[C@H](CCCNC(=N)N)NC1=O` [compound 64] (cyclo(THLETTFTGAGTPKTIRVTQ[dP]GQ)), the “Normalized SPOT fluorescence (Mut/WT)” value at PSD-95-PDZ2 [1] was 1.80. For the same compound, the “Relative Ki (Ki mut/Ki WT)” value on PSD-95-PDZ2 [2] turned out to be 2.15.

For `CC[C@H](C)[C@@H]1NC(=O)[C@H]([C@@H](C)O)NC(=O)[C@H](CCCCN)NC(=O)[C@@H]2CCCN2C(=O)[C@H]([C@@H](C)O)NC(=O)CNC(=O)[C@H](CC(=O)O)NC(=O)CNC(=O)[C@H]([C@@H](C)O)NC(=O)[C@H](Cc2ccccc2)NC(=O)[C@H]([C@@H](C)O)NC(=O)[C@H]([C@@H](C)O)NC(=O)[C@H](CCC(=O)O)NC(=O)[C@H](CC(C)C)NC(=O)[C@H](Cc2c[nH]cn2)NC(=O)[C@H]([C@@H](C)O)NC(=O)[C@H](CCC(N)=O)NC(=O)CNC(=O)[C@H]2CCCN2C(=O)[C@H](CCCNC(=N)N)NC(=O)[C@H](CCCNC(=N)N)NC(=O)[C@H](C(C)C)NC(=O)[C@H](CCCNC(=N)N)NC1=O` [compound 45] (cyclo(THLETTFTGDGTPKTIRVRR[dP]GQ)), the “Normalized SPOT fluorescence (Mut/WT)” value at PSD-95-PDZ2 [1] is 3.50. For the same compound, the “Relative Ki (Ki mut/Ki WT)” value on PSD-95-PDZ2 [2] stood at 1.31.

`CC[C@H](C)[C@@H]1NC(=O)[C@H]([C@@H](C)O)NC(=O)[C@H](CCCCN)NC(=O)[C@@H]2CCCN2C(=O)[C@H]([C@@H](C)O)NC(=O)CNC(=O)[C@H](CC(=O)O)NC(=O)CNC(=O)[C@H]([C@@H](C)O)NC(=O)[C@H](Cc2ccccc2)NC(=O)[C@H]([C@@H](C)O)NC(=O)[C@H]([C@@H](C)O)NC(=O)[C@H](CCC(=O)O)NC(=O)[C@H](CC(C)C)NC(=O)[C@H](Cc2c[nH]cn2)NC(=O)[C@H]([C@@H](C)O)NC(=O)[C@H](CCC(N)=O)NC(=O)CNC(=O)[C@H]2CCCN2C(=O)[C@H](CCC(N)=O)NC(=O)[C@H](C)NC(=O)[C@H](C(C)C)NC(=O)[C@H](CCCNC(=N)N)NC1=O` [compound 73] (cyclo(THLETTFTGDGTPKTIRVAQ[dP]GQ)): at PSD-95-PDZ2 [1], the “Normalized SPOT fluorescence (Mut/WT)” value is on record as 0.61. The “Relative Ki (Ki mut/Ki WT)” value on PSD-95-PDZ2 [2] is 1.03.

`CC[C@H](C)[C@@H]1NC(=O)[C@H]([C@@H](C)O)NC(=O)[C@H](CCCCN)NC(=O)[C@@H]2CCCN2C(=O)[C@H]([C@@H](C)O)NC(=O)[C@H](C)NC(=O)[C@H](CC(=O)O)NC(=O)CNC(=O)[C@H]([C@@H](C)O)NC(=O)[C@H](Cc2ccccc2)NC(=O)[C@H]([C@@H](C)O)NC(=O)[C@H]([C@@H](C)O)NC(=O)[C@H](CCC(=O)O)NC(=O)[C@H](CC(C)C)NC(=O)[C@H](Cc2c[nH]cn2)NC(=O)[C@H]([C@@H](C)O)NC(=O)[C@H](CCC(N)=O)NC(=O)CNC(=O)[C@H]2CCCN2C(=O)[C@H](CCC(N)=O)NC(=O)[C@H]([C@@H](C)O)NC(=O)[C@H](C(C)C)NC(=O)[C@H](CCCNC(=N)N)NC1=O` [compound 65] (cyclo(THLETTFTGDATPKTIRVTQ[dP]GQ)): the “Normalized SPOT fluorescence (Mut/WT)” value on PSD-95-PDZ2 [1] came to 1.34. Further, on PSD-95-PDZ2 [2], the Ki was 410 nM and the “Relative Ki (Ki mut/Ki WT)” value was 0.27.

For `CC[C@H](C)[C@@H]1NC(=O)[C@H]([C@@H](C)O)NC(=O)[C@H](CCCCN)NC(=O)[C@@H]2CCCN2C(=O)[C@H]([C@@H](C)O)NC(=O)CNC(=O)[C@H](CC(=O)O)NC(=O)CNC(=O)[C@H]([C@@H](C)O)NC(=O)[C@H](Cc2ccccc2)NC(=O)[C@H]([C@@H](C)O)NC(=O)[C@H]([C@@H](C)O)NC(=O)[C@H](C)NC(=O)[C@H](CC(C)C)NC(=O)[C@H](Cc2c[nH]cn2)NC(=O)[C@H]([C@@H](C)O)NC(=O)[C@H](CCC(N)=O)NC(=O)CNC(=O)[C@H]2CCCN2C(=O)[C@H](CCC(N)=O)NC(=O)[C@H]([C@@H](C)O)NC(=O)[C@H](C(C)C)NC(=O)[C@H](CCCNC(=N)N)NC1=O` [compound 58] (cyclo(THLATTFTGDGTPKTIRVTQ[dP]GQ)), the “Normalized SPOT fluorescence (Mut/WT)” value at PSD-95-PDZ2 [1] turned out to be 0.15. Moreover, at PSD-95-PDZ2 [2], the “Relative Ki (Ki mut/Ki WT)” value is given as 14.11.
